In patent US20150038493A1, “COMPOUNDS THAT TRAP ALPHA-OXOALDEHYDES AND ALPHA-BETA-UNSATURATED ALDEHYDES, META-COMPOUNDS CONTAINING SUCH COMPOUNDS, AND USE OF SAID COMPOUNDS IN TREATING ILLNESSES RELATED TO THE ACCUMULATION OF AGES AND ALES” (PHARMAMENS, priority 2011, published 2015):
Peptide text beside a SMILES is read from it.

Tests used:
[1] = tested on: advanced glycation end-products (AGEs) on human albumin; test: Inhibition of AGE formation: fluorescence of human albumin incubated with glucose; assay type: biochemical; details: human albumin 50 g/l, glucose 500 mM, compound 50 mM, 37° C., 20 days; ex 370 nm, em 440 nm
Protocol: Human albumin at physiological concentration (50 g/l) is incubated with glucose (500 mM in phosphate buffer at 100 mM, pH=7.4) at 37° C. for 20 days in the presence or absence of the compounds tested (50 mM). A measurement of the fluorescence (reading at 440 nm after excitation at 370 nm) is then carried out on each sample. The results are expressed in the form of a fluorescence read (sample)/maximum fluorescence observed (control without scavenger compound, D=20) ratio.
A solution of human albumin (50 g/l) and of glucose (500 mM) in phosphate buffer (100 mM, pH=7.4) is prepared. 1000 μl of the previous solution are then immediately charged to tubes, each containing one of the compounds tested (50 μmol). The resulting solutions are homogenized (vortex for 10 sec) and then immediately filtered through a sterile 0.2 μm membrane into sterile capped Eppendorf tubes (1.5 ml), under a vertical laminar flow filtering hood. The tubes are then stoppered and placed at 37° C., in the dark, for 20 days. After a return to ambient temperature (22° C.), a measurement of the fluorescence (λex=370 nm, λem=440 nm) is carried out on 200 μl of each sample.

[2] = Scavenging of glyoxal (GO) generated from glucose incubated at 37° C., LC-MS assay after 2,3-diaminonaphthalene derivatization; details: for GO scavenging activity (in words): compound 100 μM added on 7th day, FIG. 1; for level of GO observed after 14 days: glucose 50 mM, phosphate buffer pH 7.4, 37° C., compound added on 7th day, final concentration 100 μM
Protocol: (§1) An aqueous solution of glucose (50 mM in phosphate buffer at 100 mM, pH=7.4) is incubated at 37° C. for 14 days in order to “naturally” generate glyoxal (GO) and methylglyoxal (MGO). The compound tested is introduced on the 7th day (final concentration=100 μM). The GO and MGO concentrations of the medium are measured at regular intervals by LC-MS assaying, after derivatization with 2,3-diaminonaphthalene, in order to determine the effect of the compound tested.
(§2) The results of the assays are compared with those obtained without the addition of scavenger compound (control) and with those obtained during the addition of a reference compound (aminoguanidine, D-Dap, D-Dap-L-Leu, 8-hydroxyquinoline).
(§3) A solution S0 of glucose (50 mM) in phosphate buffer (100 mM, pH=7.4) is prepared and then filtered through a sterile 0.2 μm membrane into a sterile Falcon tube, under a vertical laminar flow filtering hood. 1000 μl of solution S0 are then charged to several sterile capped Eppendorf tubes (1.5 ml) which are then stoppered and placed at 37° C., in the dark, for 14 days (“control” series). The rest of the solution S0 is incubated in the same way, in a Falcon tube. The Eppendorf tubes are then removed, one by one, at regular intervals (approximately 24 h) and are immediately placed at −20° C. while awaiting analysis.
(§4) On D=7, an aqueous solution S1 of the compound tested (5 mM) is prepared and then filtered through a sterile 0.2 μm membrane into a sterile Falcon tube, under a vertical laminar flow filtering hood. A mixture of the solution S1 (140 μl) and of the remaining solution S0, incubated for 7 days at 37° C. (6860 μl), is then prepared before being divided up between 6 sterile Eppendorf tubes (6×1000 μl) which are subsequently stoppered and placed at 37° C., in the dark, for 7 days (“test” series). These tubes are removed, one by one, at regular intervals (approximately 24 h) and are immediately placed at −20° C. while awaiting analysis. On D=14, the tubes of the “control” and “test” series are thawed and are each treated with 100 μl of a solution of 2,3-diaminonaphthalene (10 mM) in order to derivatize the GO and the MGO, respectively in the form of GO-DAN and of MGO-DAN. After homogenization (vortex for 10 sec), the tubes are left to stand for 24 h, at 20° C., in the dark. The GO-DAN and the MGO-DAN are then assayed in each sample by LC-MS (Shimadzu LCMS-2020), by external calibration carried out with standard solutions of GO-DAN and of MGO-DAN, according to the following conditions. Column: Shim-pack XR-ODS II (75×2 mm, 80 Å), temperature: 40° C., eluent: water/methanol (50/50)+0.1% of formic acid, flow rate: 300 μl/min, analysis time: 10 min, injection volume: 1 μl, detection: ESI+ in SIM mode (m/z=181.1 and 195.1) with the following parameters: interface voltage=4.5 kV, DL voltage=10 V, Q-array DC=0 V, Q-array RF=40 V (for m/z=181.1) or 10 V (for m/z=195.1). The GO-DAN and MGO-DAN compounds are respectively detected at the retention times of 3.9 min and 5.4 min.

[3] = Scavenging of methylglyoxal (MGO) generated from glucose incubated at 37° C., LC-MS assay after 2,3-diaminonaphthalene derivatization; details: for MGO scavenging activity (in words): compound 100 μM added on 7th day, FIG. 2; for level of MGO observed after 14 days: glucose 50 mM, phosphate buffer pH 7.4, 37° C., compound added on 7th day, final concentration 100 μM
Protocol: as §1, §2, §3, §4

Structure (SMILES)	relative fluorescence (fluorescence read/maximum fluorescence of control D=20) [1]	GO scavenging activity (in words) [2]	MGO scavenging activity (in words) [3]	level of GO observed after 14 days [2]	level of MGO observed after 14 days [3]
NCCC(=O)N[C@@H](Cc1cnc[nH]1)C(=O)O [carnosine]	60%				
NC[C@@H](N)C(=O)N1CCOCC1 [Compound 4e]	19%				
CC(C)C[C@H](NC(=O)[C@H](N)CN)C(=O)O [D-Dap-L-Leu] (HELM PEPTIDE1{[NC[C@@H](N)C(=O)[*:2]].L}$$$$V2.0)	43%				
Oc1cccc2cccnc12 [8-hydroxyquinoline]	40%				
NC[C@@H](N)C(=O)N1CCN(C2CCCCC2)CC1 [Compound 4h, (2R)-2,3-diamino-1-(4-cyclohexylpiperazin-1-yl)propan-1-one]		activity close to or even greater than that of the reference compound, aminoguanidine	activity close to or even greater than that of the reference compound, aminoguanidine		
C[C@@H](N)C(=O)N1CCOCC1 [D-Ala-Morpholine]	78%				
NC[C@@H](N)C(=O)N1CCN(C(=O)Cc2ccc(O)c3ncccc23)CC1 [Compound 13, (2R)-2,3-diamino-1-{4-[2-(8-hydroxyquinolin-5-yl)acetyl]piperazin-1-yl}propan-1-one]	2%	good capacity for scavenging of GO and of MGO	good capacity for scavenging of GO and of MGO	2.6 µM	0.12 µM
NC[C@@H](N)C(=O)N1CCN(C(=O)[C@H](N)CN)CC1 [Compound 6a, (2R,2′R)-1,1′-(piperazine-1,4-diyl)bis(2,3-diaminopropan-1-one)]		activity close to or even greater than that of the reference compound, aminoguanidine	activity close to or even greater than that of the reference compound, aminoguanidine		
N=C(N)NN [aminoguanidine, reference compound]	3%			68.4 µM	1.20 µM
CC1CCN(C(=O)[C@H](N)CN)CC1 [Compound 4c]		activity close to or even greater than that of the reference compound, aminoguanidine	activity close to or even greater than that of the reference compound, aminoguanidine		
NC[C@@H](N)C(=O)N1CCN(Cc2ccc(O)c3ncccc23)CC1 [Compound 11, (2R)-2,3-diamino-1-{4-[(8-hydroxyquinolin-5-yl)methyl]piperazin-1-yl}propan-1-one]	3%	good capacity for scavenging of GO and of MGO	good capacity for scavenging of GO and of MGO	3.0 µM	0.19 µM
